Measurements taken from US8624079B2, “Knockin mouse with a disruption in a PXR gene expressing human PXR” (ITI Scotland Limited, priority 2007, dated 2014).
Where “and” joins values, the source holds several entries; their conditions need not be identical. Equal values may be shown once.

What was measured:
Cyp3a11 [1] = assay: Midazolam metabolism in koCyp3a11 mice; details: male koCyp3a11 mice compared to male wild type mice
Source text: The also inventors studied the pharmacokinetics of midazolam (MDZ; metabolisation to form 1-hydroxymidazolam) in male koCyp3a11 mice, in comparison to male wild type mice.

[2] = Liver/body weight ratios (hepatomegaly); assay type: in vivo, mouse; details: PB 80 mg/kg ip daily for 4 days; for Body weight (g) - Day 5 / Liver weight / Liver/Body weight Ratio: Mean ± SD; for hepatomegaly: WT and huPXR/huCAR mice
Source text: Post operation all animals had no abnormalities detected.

liver [3] = assay: H&E histopathology of liver and small intestine; assay type: in vivo, mouse
Source text: Two samples of the liver (one from the lobe, one from the median lobe) and one sample of the small intestine were taken and preserved in 4% neutral buffered formaldehyde (NBF). The preserved liver samples of all mice of all groups were trimmed, processed and embedded in paraffin. The paraffin-embedded samples were sent to Progenix, Inverkeithing, UK where they were sectioned at a nominal thickness of about 5 áem and then stained with haematoxylin and eosin (H&E). One section of each organ sample was examined by Dr. Ortwin Vogel, Consultant Pathologist, Kiel, Germany. Subsequent to his histopatholoical analysis of all H&E stained mouse livers and small intestines, Dr. Vogel reported the following finding;

liver cells = assay: BrdU incorporation in liver (hepatic cell proliferation, S-phase labelling index); assay type: in vivo, mouse; details: for % BrDu Positive Cells, % mean (of own control) / % BrDu Positive Cells, Mean / % BrDu Positive Cells (individual mouse): liver; for cell proliferation (BrdU positive cells): huPXR/huCAR or PXRKO/CARKO mice
[4] = wild-type, koPXR or koCAR mice; 40 mg/kg
Description: For the same animals, plasma levels of alanine aminotransferase (ALT), alkaline phosphatase (ALP) and aspartate aminotransferase (AST) were also measured (see FIG. 40). […] Both compounds were administered at 40 mg/kg.
Plasma levels of alanine aminotransferase (ALT), alkaline phosphatase (ALP) and aspartate aminotransferase (AST) were also measured (see FIG. 46).

Cyp2b10 [5] = assay: Cyp2b10 protein expression of treated mice by SDS-PAGE and Western blotting; details: for Cyp2b10 protein in pooled liver microsomes (Western blot): PB 80 mg/kg ip daily for 4 days
Description: (§1) Dosing solutions were prepared on the day of administration by adding corn oil to the requisite quantity of test substance and stirring to obtain a solution or fine suspension. The concentration of PCN was 10 mg/ml and Rif 2.5 mg/ml of supplied chemical, without any correction for purity. Records of preparation were retained.
Control animals were administered vehicle (corn oil) daily by intraperitoneal injection. The volume of vehicle and solutions of inducing agents administered was 10 ml/kg bodyweight. This route of administration was chosen for consistency with previously published work. […]
(§2) Quantification of Cyp3a11, Cyp2b10 and PXR protein in liver microsomes of all mice samples was carried out by SDS-PAGE and Western blotting. To detect murine and human PXR protein, an antibody (RF8) was employed. For the identification of Cyp3a and Cyp2b, […] were used, (CH32 and CH4, respectively).

Cyp1a1/1a2 and Cyp1b1 = assay: MROD and EROD activity in liver microsomes of treated mice; details: PB 80 mg/kg ip daily for 4 days
Source text: EROD activity is indicative of Cyp1a1/1a2 and Cyp1b1 in the mouse, whereas MROD is a substrate for Cyp1a2. However, other isoforms may be contributing to the measured activities. The results from the two enzyme assays are in reasonably good agreement with each other (FIG. 130a-b) As the Cyp1a2 gene is constitutively expressed, this may explain the basal levels of activity observed in both activity assays.

Cyp3a11 [6] = assay: Cyp3a11 protein expression in liver microsomes of treated mice by SDS-PAGE and Western blotting; details: mouse, in vivo, 40 mg/kg
Description: as §1
The volume of vehicle and solutions of inducing agents administered was 10 ml/kg bodyweight. This route of administration was chosen for consistency with previously published work. […]
as §2

Cyp3a = assay: 7-benzyloxyquinoline (BQ) activity assay in liver microsomes of treated mice; details: PB 80 mg/kg ip daily for 4 days
Description: PXR activity was determined by measuring the metabolism of a number of cytochrome P450 substrates which are metabolised to different extents by different cytochrome P450 enzymes. The following assays were performed: • 7-benzyloxyquinoline (BQ) activity was determined in liver microsomes. • Testosterone hydroxylase activity was determined in liver microsomes (LMS HPLC-006). • The specific activities of these reactions was expressed per mg protein as determined using the Lowry assay (LMS Spec-0001).

Cyp3a11 and Cyp2b10 = assay: Comparative induction study in PXR/CAR humanised and knockout panel (Cyp3a11, Cyp2b10 protein, BQ and PROD activity); details: mice in which CAR had been knocked out; 40 mg/kg
Source text: The effects of phenobarbital on Cyp3a11 and Cyp2b10 induction were compared in wild type, huPXR, koPXR, huCAR, koCAR, huPXR/huCAR, koPXR/koCAR huPXR/koCAR and koPXR/huCAR mice (see FIG. 87).

Cyp2b10 [7] = assay: pentoxyresorufin-O-deethylation (PROD) and BROD activity assay in liver microsomes of treated mice; details: for BROD and PROD activities (Cyp2b10 / P450 induction): WT and huPXR/huCAR mice
liver [8] = assay: TUNEL labelling assay (hepatic in situ cell death); assay type: in vivo, mouse; details: WT, huPXR/huCAR and PXRKO/CARKO mice; PB 80 mg/kg ip daily for 4 days
Source text: However, no such consistency has been observed in mice. An indirect TUNEL labelling assay was used to analyse hepatic in situ death (FIG. 128/Table 4). The present study has shown a marker variation in apoptotic indices in mouse liver. Thus, small (e.g. 50%) compound-induced decreases, upon a low background, were not readily demonstrable.

[9] = wild type mice; rifampicin 10 mg/kg per day for 3 days before midazolam
[10] = PXRKO/CARKO mice, PB 80 mg/kg ip daily for 4 days
[11] = PXRKO/CARKO mice, PB 80 mg/kg ip daily for 4 days, listed as PB
[12] = WT mice, PB 80 mg/kg ip daily for 4 days
[13] = huPXR/huCAR mice, PB 80 mg/kg ip daily for 4 days
[14] = PB 80 mg/kg ip daily for 4 days
[15] = PB 80 mg/kg ip daily for 4 days, listed as PB

## Cc1ncc2n1-c1ccc(Cl)cc1C(c1ccccc1F)=NC2 [midazolam]
Cyp3a11 [1]
  1-hydroxymidazolam formation: significantly reduced

## CCC1(c2ccccc2)C(=O)NC(=O)NC1=O [phenobarbital, Phenobarbital]
[2]; PXRKO/CARKO mice
  Body weight - Day 5 (% mean own control ± % SD): (98 ± 8) %
  Liver weight (% mean own control ± % SD): (98 ± 16) %
  Liver/Body weight Ratio (% mean own control ± % SD): (100 ± 9) %
  Body weight (g) - Day 5: 26.6 ± 2.2 g
  Liver weight: 1.42 ± 0.23 g
  Liver/Body weight Ratio: 5.3 ± 0.4
[2]
  hepatomegaly: led to both hepatomegaly and P450 induction
[2]; listed as PB
  hepatomegaly: observed
[2]; WT mice
  Body weight - Day 5 (% mean own control ± % SD): (84 ± 5) %
  Liver weight (% mean own control ± % SD): (101 ± 6) %
  Body weight (g) - Day 5: 23.2 ± 1.3 g
  Liver weight: 1.44 ± 0.09 g
  Liver/Body weight Ratio: 6.2 ± 0.2
[2]; huPXR/huCAR mice
  Body weight - Day 5 (% mean own control ± % SD): (99 ± 6) %
  Liver weight (% mean own control ± % SD): (121 ± 11) %
  Body weight (g) - Day 5: 25.4 ± 1.5 g
  Liver weight: 1.69 ± 0.16 g
  Liver/Body weight Ratio: 6.7 ± 0.6
Liver [3]; [10]
  hepatocellular hypertrophy (H&E, microscopic): no unequivocal evidence of a hepatocellular hypertrophy
Liver [3]; PXRKO/CARKO strain, PB 80 mg/kg/4days/IP
  pathological evidence in liver (pathologist's conclusion): Evidence of hepatocellular hyperplasia occurred
Liver [3]; WT and huPXR/huCAR strain, PB 80 mg/kg/4days/IP
  pathological evidence in liver (pathologist's conclusion): pathological evidence of a hepatocellular hypertrophy/hyperplasia
Liver [3]; WT, huPXR/huCAR and PXRKO/CARKO mice, PB 80 mg/kg ip daily for 4 days
  mitotic figures indicating hepatocellular proliferation (H&E): noted mainly in PB-treated WT mice
Liver [3]; all mouse lines, PB 80 mg/kg/4days/IP
  microscopic findings in the small intestine: No microscopic findings were recorded in the small intestine
Liver [3]; huPXR/huCAR and WT mice, PB 80 mg/kg ip daily for 4 days
  hepatocellular hypertrophy (H&E, microscopic): slight to moderate centrilobular hepatocellular hyperthrophy
Liver cells; [10]
  % BrDu Positive Cells, % mean (of own control): 144%
  % BrDu Positive Cells, Mean: 2.83%
Liver cells; [11]
  % BrDu Positive Cells (individual mouse): 2.16% and 1.98% and 1.82% and 2.30% and 3.77% and 5.10% and 3.71% and 1.88% and 3.06% and 2.51%
Liver cells; [12]
  increase of hepatocellular labelling index (S-phase): approximately 5 fold
  % BrDu Positive Cells, % mean (of own control): 531%
  % BrDu Positive Cells, Mean: 9.30%
Liver cells; WT mice, PB 80 mg/kg ip daily for 4 days, listed as PB
  % BrDu Positive Cells (individual mouse): 9.45% and 5.54% and 16.69% and 6.32% and 9.50% and 8.09% and 7.64% and 13.60%
Liver cells; [13]
  % BrDu Positive Cells, % mean (of own control): 104%
  % BrDu Positive Cells, Mean: 2.00%
Liver cells; huPXR/huCAR mice, PB 80 mg/kg ip daily for 4 days, listed as PB
  % BrDu Positive Cells (individual mouse): 0.37% and 0.-18% and 1.19% and 1.86% and 3.GO and 1.98% and 3.18% and 3.24% and 2.13%
Liver cells; [14]
  cell proliferation (BrdU positive cells): No increase in BrdU positive cells was observed
Liver cells; [15]
  cell proliferation (BrdU positive cells): appeared to have no effect on cell proliferation
Liver cells; wild-type mice, phenobarbital vs unexposed control
  hepatocellular proliferation (% BrdU-positive cells): hepatocellular proliferation only in wild-type mice
[4]
  hepatotoxicity (liver/body weight ratio, plasma ALT, ALP, AST): No hepatotoxicity was detected
Cyp2b10 [5]; PXRKO/CARKO mice
  Cyp2b10 protein in pooled liver microsomes (Western blot): not in the PXRKO/CARKO animals
Cyp2b10 [5]; WT and huPXR/huCAR mice
  Cyp2b10 protein in pooled liver microsomes (Western blot): induced
Cyp2b10 [5]; koCAR mice, 40 mg/kg
  Cyp2b10 expression in liver (Western blot): significantly reduced
Cyp2b10 [5]; wild-type and huCAR mice, 40 mg/kg
  Cyp2b10 expression (Western blot and PROD activity, liver): induced Cyp2b10 expression both in the wild-type and in huCAR mice
Cyp1a1/1a2 and Cyp1b1; PXRKO/CARKO line
  MROD and EROD enzyme activities: no increase
Cyp1a1/1a2 and Cyp1b1; WT and huPXR/huCAR mice
  MROD and EROD enzyme activities: increased
Cyp3a11 [6]
  Cyp3a11 expression in liver (Western blot): significantly reduced
Cyp3a; PXRKO/CARKO mice
  Cyp3a11 induction (BQ activity): absence of Cyp3a11 induction
Cyp3a; WT mice
  increase in BQ activity: marginal increase
Cyp3a; huPXR/huCAR mice
  increase in BQ activity: 5 fold
Cyp3a11 and Cyp2b10
  induction of Cyp3a11 and Cyp2b10 protein expression or activity in the BQ and PROD assays: Little or no induction
Cyp2b10 [7]; [11]
  PROD or BROD activities (Cyp2b10 / P450 induction): not altered
Cyp2b10 [7]; [14]
  BROD and PROD activities (Cyp2b10 / P450 induction): led to both hepatomegaly and P450 induction
Cyp2b10 [7]; [15]
  BROD and PROD activities (Cyp2b10 / P450 induction): marker Cyp2b10 induction was observed, at similar levels
Liver [8]
  hepatic apoptotic indices (TUNEL), PB-treated vs control: no statistical significance found

## CO[C@H]1/C=C/O[C@@]2(C)Oc3c(C)c(O)c4c(O)c(c(/C=N/N5CCN(C)CC5)c(O)c4c3C2=O)NC(=O)/C(C)=C\C=C\[C@H](C)[C@H](O)[C@@H](C)[C@@H](O)[C@@H](C)[C@H](OC(C)=O)[C@@H]1C [rifampicin]
Cyp2b10 [5]; mouse, in vivo
  induction of Cyp2b10 expression: did not induce
  induction of Cyp2b10 expression and PROD activity: only in the huPXR.1 mouse, but not in the wild type or in the huPXR mouse
Cyp2b10 [5]; mouse, in vivo, ip
  induction of Cyp2b10 protein (Western blot): not markedly induced
[9]
  effect of rifampicin pre-treatment on midazolam pharmacokinetics: no significant effect was observed
Cyp2b10 [7]; wild-type or huPXR mice, rifampicin
  induction of Cyp2b10 activity: did not induce
